Key:
Type in all cases: in vivo
SIDSP Sida spinosa = assay: Pre-emergence crop and weed test (Example 16); settings: after 20 days
Method: (§1) Seeds of crop and representative weed species were sown in standard soil in pots. After cultivation for 1 day under controlled conditions in a glasshouse (at 22/16° C., day/night; 16 hours light; 65% humidity), the plants were sprayed. The spray solution was prepared by dissolving the technical active ingredient in acetone containing 10.56 wt % Emulsogen EL, 42.22 wt % N-methylpyrrolidone and 2.22 wt % DPG-monoethyl ether to give a 5% stock solution. This was then diluted with water containing 0.2% (v/v) of the adjuvant X-77 to give the desired treatment concentration.
(§2) The test plants were then grown on under controlled conditions in a glasshouse (at 22/16° C., day/night; 16 hours light; 65% humidity) and watered twice daily. After 20 days the test was evaluated (100=total damage to plant; 0=no damage to plant).
(§3) Species as for Post-Emergence Test.

IPOHE Ipomoea hederacea = assay: Pre-emergence crop and weed test (Example 16); settings: after 20 days
Method: as §1, §2, §3

GALAP Galium aparine = assay: Pre-emergence crop and weed test (Example 16); settings: after 20 days
Method: as §1, §2, §3

SINAR Sinapis arvensis = assay: Pre-emergence crop and weed test (Example 16); settings: after 20 days
Method: as §1, §2, §3

[1] = test system: EPHHL Euphorbia heterophylla; assay: Pre-emergence crop and weed test (Example 16); settings: after 20 days
Method: as §1, §2, §3

[2] = test system: POLCO Polygonum convolvulus; assay: Pre-emergence crop and weed test (Example 16); settings: after 20 days
Method: as §1, §2, §3

CHEAL Chenopodium album = assay: Pre-emergence crop and weed test (Example 16); settings: after 20 days
Method: as §1, §2, §3

[3] = test system: XANST Xanthium strumarium; assay: Pre-emergence crop and weed test (Example 16); settings: after 20 days
Method: as §1, §2, §3

[4] = test system: ABUTH Abutilon theophrasti; assay: Pre-emergence crop and weed test (Example 16); settings: after 20 days
Method: as §1, §2, §3

GLXMA Soybean = assay: Pre-emergence crop and weed test (Example 16); settings: after 20 days
Method: as §1, §2, §3

[5] = test system: AMARE Amaranthus retroflexus; assay: Pre-emergence crop and weed test (Example 16); settings: after 20 days
Method: as §1, §2, §3

Setaria faberi (SETFA) [6] = assay: Pre-emergence biological efficacy (Example 13); settings: Setaria faberi, 312 h; pre-emergence, 1,000 g/ha, after 13 days; read-out: Percentage damage SETFA
In short: (§4)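 Glasshouse pot test (24/16 °C day/night, 14 h photoperiod, 65% humidity): sowing, one-day cultivation, then spraying at a dose of 250 or 1000 g/ha. Visual damage scored 0–100 after 13 days.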

[7] = test system: Echinochloa crus-galli (ECHCG); assay: Pre-emergence biological efficacy (Example 13); settings: Echinochloa crus-galli, 312 h; pre-emergence, 1,000 g/ha, after 13 days; read-out: Percentage damage ECHCG
In short: as §4

Solanum nigrum (SOLNI) [8] = assay: Pre-emergence biological efficacy (Example 13); settings: Solanum nigrum, 312 h; pre-emergence, 1,000 g/ha, after 13 days; read-out: Percentage damage SOLNI
In short: as §4

[9] = test system: Amaranthus retroflexus (AMARE); assay: Pre-emergence biological efficacy (Example 13); settings: Amaranthus retroflexus, 312 h; pre-emergence, 1,000 g/ha, after 13 days; read-out: Percentage damage AMARE
In short: as §4

[10] = test system: Ipomea hederaceae (IPOHE); assay: Pre-emergence biological efficacy (Example 13); settings: Ipomoea hederacea, 312 h; pre-emergence, 1,000 g/ha, after 13 days; read-out: Percentage damage IPOHE
In short: as §4

[11] = test system: Alopecurus myosuroides (ALOMY); assay: Pre-emergence biological efficacy (Example 13); settings: Alopecurus myosuroides, 312 h; pre-emergence, 1,000 g/ha, after 13 days; read-out: Percentage damage ALOMY
In short: as §4

Setaria faberi (SETFA) [12] = assay: Post-emergence biological efficacy (Example 14); settings: Setaria faberi, 312 h; post-emergence, 1,000 g/ha, after 13 days; read-out: Percentage damage SETFA
In short: (§5)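 Eight-day-old potted plants received 250 or 1000 g/ha by foliar spray, then grew on at 24/16 °C day/night with twice-daily watering. Injury was rated 13 days later, where 0 means no damage and 100 means complete damage.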

Solanum nigrum (SOLNI) [13] = assay: Post-emergence biological efficacy (Example 14); settings: Solanum nigrum, 312 h; post-emergence, 1,000 g/ha, after 13 days; read-out: Percentage damage SOLNI
In short: as §5

[14] = test system: Amaranthus retroflexus (AMARE); assay: Post-emergence biological efficacy (Example 14); settings: Amaranthus retroflexus, 312 h; post-emergence, 1,000 g/ha, after 13 days; read-out: Percentage damage AMARE
In short: as §5

[15] = test system: Ipomea hederaceae (IPOHE); assay: Post-emergence biological efficacy (Example 14); settings: Ipomoea hederacea, 312 h; post-emergence, 1,000 g/ha, after 13 days; read-out: Percentage damage IPOHE
In short: as §5

[16] = test system: Alopecurus myosuroides (ALOMY); assay: Post-emergence biological efficacy (Example 14); settings: Alopecurus myosuroides, 312 h; post-emergence, 1,000 g/ha, after 13 days; read-out: Percentage damage ALOMY
In short: as §5

| SMILES | Percentage damage SIDSP (SIDSP Sida spinosa; 125 g/ha) | Percentage damage IPOHE (IPOHE Ipomoea hederacea; 125 g/ha) | Percentage damage GALAP (GALAP Galium aparine; 125 g/ha) | Percentage damage SINAR (SINAR Sinapis arvensis; 125 g/ha) | Percentage damage EPHHL ([1]; 125 g/ha) | Percentage damage POLCO ([2]; 125 g/ha) | Percentage damage CHEAL (CHEAL Chenopodium album; 125 g/ha) | Percentage damage XANST ([3]; 125 g/ha) | Percentage damage ABUTH ([4]; 125 g/ha) | pest or weed control at 1000 g/ha (Setaria faberi (SETFA) [6]) | pest or weed control at 1000 g/ha [7] | pest or weed control at 1000 g/ha (Solanum nigrum (SOLNI) [8]) | pest or weed control at 1000 g/ha [9] | pest or weed control at 1000 g/ha [10] | pest or weed control at 1000 g/ha [11] | pest or weed control at 1000 g/ha (Setaria faberi (SETFA) [12]) | pest or weed control at 1000 g/ha (Solanum nigrum (SOLNI) [13]) | pest or weed control at 1000 g/ha [14] | pest or weed control at 1000 g/ha [15] | pest or weed control at 1000 g/ha [16] | other results |
| --- | --- | --- | --- | --- | --- | --- | --- | --- | --- | --- | --- | --- | --- | --- | --- | --- | --- | --- | --- | --- | --- |
| C/C=C\c1c(N)nc(-c2ccc(Cl)c(OC)c2F)nc1C(=O)OC [Compound 4, (Z)-4-Amino-2-(4-chloro-2-fluoro-3-methoxy-phenyl)-6-methoxy-carbonyl-5-(prop-1-enyl)-pyrimidine] | 100% | 50% | 80% | 50% | 100% | 20% | 40% | 30% | 100% | 80% | 90% | 100% | 100% | 100% | 80% | 90% | 80% | 100% | 100% | 70% | Percentage damage GLXMA (GLXMA Soybean; 125 g/ha): 10%; Percentage damage AMARE ([5]; 125 g/ha): 100% |
| C/C=C/c1c(N)nc(-c2ccc(Cl)c(OC)c2F)nc1C(=O)OC [Compound 3, (E)-4-Amino-2-(4-chloro-2-fluoro-3-methoxy-phenyl)-6-methoxy-carbonyl-5-(prop-1-enyl)-pyrimidine] | – | – | – | – | – | – | – | – | – | 80% | 90% | 80% | 50% | 90% | 90% | 100% | 100% | 100% | 90% | 90% | Percentage damage SIDSP (SIDSP Sida spinosa; 30 g/ha): 90%; Percentage damage IPOHE (IPOHE Ipomoea hederacea; 30 g/ha): 0%; Percentage damage GALAP (GALAP Galium aparine; 30 g/ha): 100%; Percentage damage SINAR (SINAR Sinapis arvensis; 30 g/ha): 40%; Percentage damage EPHHL ([1]; 30 g/ha): 100%; Percentage damage POLCO ([2]; 30 g/ha): 50%; Percentage damage CHEAL (CHEAL Chenopodium album; 30 g/ha): 100%; Percentage damage XANST ([3]; 30 g/ha): 10%; Percentage damage ABUTH ([4]; 30 g/ha): 30%; Percentage damage GLXMA (GLXMA Soybean; 30 g/ha): 0%; Percentage damage AMARE ([5]; 30 g/ha): 80% |
| C/C=C\c1c(N)nc(-c2ccc(Cl)c(N(C)C)c2F)nc1C(=O)OC [Compound 5, (Z)-4-Amino-2-(4-chloro-3-dimethylamino-2-fluorophenyl)-6-methoxy-carbonyl-5-(prop-1-enyl)-pyrimidine] | 90% | 50% | 100% | 40% | 100% | 0% | 100% | 40% | 70% | 30% | 30% | 60% | 70% | 20% | 30% | 70% | 80% | 100% | 30% | 60% | Percentage damage GLXMA (GLXMA Soybean; 125 g/ha): 0%; Percentage damage AMARE ([5]; 125 g/ha): 90% |
